Source: PubChem BioAssay (NCI)
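Growth conditions: 96-well plates. Treatment: test compound, 48 hours, 5 concentrations. Analysis: linear interpolation between bracketing concentrations; unreached endpoints set to highest concentration. Definition used: TGI = concentration required for complete inhibition of growth.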

test system: M14 melanoma; test: NCI-60 cell line screen, 48 h

Compound | TGI [µM]
COc1ccc(CCNC2=CC(=O)c3ncccc3C2=O)cc1OC | 2.69
CC1(C)OCC2OC3(c4nc(C#N)c(N)o4)OC(C)(C)OC3C2O1 (stereo not drawn) | > 100
CC12CCC(C(=O)OC1=O)C2(C)C (stereo not drawn) | > 100
COn1cc(C=O)c2ccccc21 | > 100
CC1=CC(C2/C(=N/O)C=C(C)CC2(C)C)C(O)C(C)(C)C1 (stereo not drawn) | 28.9
C=CCNC1=C2C[C@@H](C)C[C@@H](OC)[C@@H](OC(=O)CCCN)[C@H](C)/C=C(\C)[C@@H](OC(N)=O)[C@H](OC)/C=C\C=C(/C)C(=O)NC(=CC1=O)C2=O | 28.7
c1cc(-c2ncc(-c3ccc4c(c3)CCCO4)o2)ccn1 | 94.5
O=C1NC(=O)C(c2c[nH]c3cc(Br)ccc23)=C1c1cn(C(c2ccccc2)(c2ccccc2)c2ccccc2)cn1 | 29.9
CC(C)=CCS(=O)c1ccccc1NC1=CC(=O)CC(C)(C)C1 (stereo not drawn) | > 100
COC(=O)C1=C(C)NC(C)=C(C(=O)OC)C1c1ccc(/[N+]([O-])=C/c2ccccc2)cc1 | 35.7
Cc1cc(C)cc(C(=N)c2ccccc2Cc2cccc3ccccc23)c1 | 40.1
COC1=C(Br)[C@H](O)[C@@]2(C=C1Br)CC(C(=O)NCCCCCN=C(N)N)=NO2 | > 10
CC1(C#N)CC(C)(C)C(/C=C2/CC(C)(C)C(/C=C3/OC(=N)CC3(C)C)=N2)=N1 (stereo not drawn) | 85.8
C#CCn1ncc2c(SCc3ccccc3)ncnc21 | > 100
CCOC(=O)CC1c2ccc(O)cc2OC(=O)C1c1ccc([N+](=O)[O-])cc1 (stereo not drawn) | 43.8
CCN1c2nc3ccccc3nc2N(CC)c2nc3ccccc3nc21 | > 100
CCN(CC)/C(Cl)=C(Cl)\C(=C1\Nc2ccc(OC)cc21)[N+](=O)[O-] | > 100

test system: MCF7 breast; test: NCI-60 cell line screen, 48 h

Compound | TGI [µM]
COc1ccc(CCNC2=CC(=O)c3ncccc3C2=O)cc1OC | 3.01
CC1(C)OCC2OC3(c4nc(C#N)c(N)o4)OC(C)(C)OC3C2O1 (stereo not drawn) | > 100
CC12CCC(C(=O)OC1=O)C2(C)C (stereo not drawn) | > 100
COn1cc(C=O)c2ccccc21 | > 100
CC1=CC(C2/C(=N/O)C=C(C)CC2(C)C)C(O)C(C)(C)C1 (stereo not drawn) | 30.4
C=CCNC1=C2C[C@@H](C)C[C@@H](OC)[C@@H](OC(=O)CCCN)[C@H](C)/C=C(\C)[C@@H](OC(N)=O)[C@H](OC)/C=C\C=C(/C)C(=O)NC(=CC1=O)C2=O | 19.4
c1cc(-c2ncc(-c3ccc4c(c3)CCCO4)o2)ccn1 | 80.9
O=C1NC(=O)C(c2c[nH]c3cc(Br)ccc23)=C1c1cn(C(c2ccccc2)(c2ccccc2)c2ccccc2)cn1 | 40.4
CC(C)=CCS(=O)c1ccccc1NC1=CC(=O)CC(C)(C)C1 (stereo not drawn) | > 100
COC(=O)C1=C(C)NC(C)=C(C(=O)OC)C1c1ccc(/[N+]([O-])=C/c2ccccc2)cc1 | 30.4
Cc1cc(C)cc(C(=N)c2ccccc2Cc2cccc3ccccc23)c1 | 32.2
COC1=C(Br)[C@H](O)[C@@]2(C=C1Br)CC(C(=O)NCCCCCN=C(N)N)=NO2 | > 10
CC1(C#N)CC(C)(C)C(/C=C2/CC(C)(C)C(/C=C3/OC(=N)CC3(C)C)=N2)=N1 (stereo not drawn) | 26.3
C#CCn1ncc2c(SCc3ccccc3)ncnc21 | > 100
CCOC(=O)CC1c2ccc(O)cc2OC(=O)C1c1ccc([N+](=O)[O-])cc1 (stereo not drawn) | 40.9
CCN1c2nc3ccccc3nc2N(CC)c2nc3ccccc3nc21 | > 100
CCN(CC)/C(Cl)=C(Cl)\C(=C1\Nc2ccc(OC)cc21)[N+](=O)[O-] | > 100

test system: MDA-MB-435; test: NCI-60 cell line screen, 48 h

Compound | TGI [µM]
COc1ccc(CCNC2=CC(=O)c3ncccc3C2=O)cc1OC | 0.924
CC1(C)OCC2OC3(c4nc(C#N)c(N)o4)OC(C)(C)OC3C2O1 (stereo not drawn) | > 100
CC12CCC(C(=O)OC1=O)C2(C)C (stereo not drawn) | > 100
COn1cc(C=O)c2ccccc21 | 34.9
CC1=CC(C2/C(=N/O)C=C(C)CC2(C)C)C(O)C(C)(C)C1 (stereo not drawn) | 31.2
C=CCNC1=C2C[C@@H](C)C[C@@H](OC)[C@@H](OC(=O)CCCN)[C@H](C)/C=C(\C)[C@@H](OC(N)=O)[C@H](OC)/C=C\C=C(/C)C(=O)NC(=CC1=O)C2=O | 45.2
c1cc(-c2ncc(-c3ccc4c(c3)CCCO4)o2)ccn1 | 15.3
O=C1NC(=O)C(c2c[nH]c3cc(Br)ccc23)=C1c1cn(C(c2ccccc2)(c2ccccc2)c2ccccc2)cn1 | > 100
CC(C)=CCS(=O)c1ccccc1NC1=CC(=O)CC(C)(C)C1 (stereo not drawn) | > 100
COC(=O)C1=C(C)NC(C)=C(C(=O)OC)C1c1ccc(/[N+]([O-])=C/c2ccccc2)cc1 | > 100
Cc1cc(C)cc(C(=N)c2ccccc2Cc2cccc3ccccc23)c1 | 32.9
COC1=C(Br)[C@H](O)[C@@]2(C=C1Br)CC(C(=O)NCCCCCN=C(N)N)=NO2 | > 10
CC1(C#N)CC(C)(C)C(/C=C2/CC(C)(C)C(/C=C3/OC(=N)CC3(C)C)=N2)=N1 (stereo not drawn) | 63.9
C#CCn1ncc2c(SCc3ccccc3)ncnc21 | > 100
CCOC(=O)CC1c2ccc(O)cc2OC(=O)C1c1ccc([N+](=O)[O-])cc1 (stereo not drawn) | 56.1
CCN1c2nc3ccccc3nc2N(CC)c2nc3ccccc3nc21 | > 100
CCN(CC)/C(Cl)=C(Cl)\C(=C1\Nc2ccc(OC)cc21)[N+](=O)[O-] | > 100

test system: MOLT-4 leukemia; test: NCI-60 cell line screen, 48 h

Compound | TGI [µM]
COc1ccc(CCNC2=CC(=O)c3ncccc3C2=O)cc1OC | 23.7
CC1(C)OCC2OC3(c4nc(C#N)c(N)o4)OC(C)(C)OC3C2O1 (stereo not drawn) | > 100
CC12CCC(C(=O)OC1=O)C2(C)C (stereo not drawn) | > 100
COn1cc(C=O)c2ccccc21 | > 100
CC1=CC(C2/C(=N/O)C=C(C)CC2(C)C)C(O)C(C)(C)C1 (stereo not drawn) | 31.3
C=CCNC1=C2C[C@@H](C)C[C@@H](OC)[C@@H](OC(=O)CCCN)[C@H](C)/C=C(\C)[C@@H](OC(N)=O)[C@H](OC)/C=C\C=C(/C)C(=O)NC(=CC1=O)C2=O | 40.2
c1cc(-c2ncc(-c3ccc4c(c3)CCCO4)o2)ccn1 | 17.3
O=C1NC(=O)C(c2c[nH]c3cc(Br)ccc23)=C1c1cn(C(c2ccccc2)(c2ccccc2)c2ccccc2)cn1 | 23.5
CC(C)=CCS(=O)c1ccccc1NC1=CC(=O)CC(C)(C)C1 (stereo not drawn) | > 100
COC(=O)C1=C(C)NC(C)=C(C(=O)OC)C1c1ccc(/[N+]([O-])=C/c2ccccc2)cc1 | 71.5
Cc1cc(C)cc(C(=N)c2ccccc2Cc2cccc3ccccc23)c1 | 30.8
COC1=C(Br)[C@H](O)[C@@]2(C=C1Br)CC(C(=O)NCCCCCN=C(N)N)=NO2 | > 10
CC1(C#N)CC(C)(C)C(/C=C2/CC(C)(C)C(/C=C3/OC(=N)CC3(C)C)=N2)=N1 (stereo not drawn) | 89.7
C#CCn1ncc2c(SCc3ccccc3)ncnc21 | 39
CCOC(=O)CC1c2ccc(O)cc2OC(=O)C1c1ccc([N+](=O)[O-])cc1 (stereo not drawn) | 78.6
CCN1c2nc3ccccc3nc2N(CC)c2nc3ccccc3nc21 | > 100
CCN(CC)/C(Cl)=C(Cl)\C(=C1\Nc2ccc(OC)cc21)[N+](=O)[O-] | 85.2
